Columns and labels:
NK1 = NK1 (Homo sapiens, UniProt P25103); test: Signal transduction (ST), intracellular Ca++ FLIPR, NK1; format: cell-based; details: antagonist, read-out: NK1 pIC50 (converted)
Protocol: This test evaluates in vitro functional NK1 antagonistic activity. For the measurements of intracellular Ca^++ concentrations the cells were grown on 96-well (black wall/transparent bottom) plates from Costar for 2 days until they reached confluence. The cells were loaded with 2 μM Fluo3 in DMEM containing 0.1% BSA and 2.5 mM probenecid for 1 h at 37° C. They were washed 3× with a Krebs buffer (140 mM NaCl, 1 mM MgCl2×6H2O, 5 mM KCl, 10 mM glucose, 5 mM HEPES; 1.25 mM CaCl2; pH 7.4) containing 2.5 mM probenecid and 0.1% BSA (Ca^++-buffer). The cells were preincubated with a concentration range of antagonists for 20 min at RT and Ca^++-signals after addition of the agonists were measured in a Fluorescence Image Plate Reader (FLIPR from Molecular Devices, Crawley, England). The peak of the Ca^++-transient was considered as the relevant signal and the mean values of corresponding wells were analysed as described below.
The sigmoidal dose response curves were analysed by computerised curve-fitting, using the GraphPad Program. The EC50-value of a compound is the effective dose showing 50% of maximal effect. For mean curves the response to the agonist with the highest potency was normalised to 100%. For antagonist responses the IC50-value was calculated using non-linear regression. […]

NK3 = target: T1, NK3 (Homo sapiens, UniProt P29371); test: Signal transduction (ST), intracellular Ca++ FLIPR, NK3; format: cell-based; details: antagonist, read-out: NK3 pIC50 (converted)
T1 sequence (P29371 1-465): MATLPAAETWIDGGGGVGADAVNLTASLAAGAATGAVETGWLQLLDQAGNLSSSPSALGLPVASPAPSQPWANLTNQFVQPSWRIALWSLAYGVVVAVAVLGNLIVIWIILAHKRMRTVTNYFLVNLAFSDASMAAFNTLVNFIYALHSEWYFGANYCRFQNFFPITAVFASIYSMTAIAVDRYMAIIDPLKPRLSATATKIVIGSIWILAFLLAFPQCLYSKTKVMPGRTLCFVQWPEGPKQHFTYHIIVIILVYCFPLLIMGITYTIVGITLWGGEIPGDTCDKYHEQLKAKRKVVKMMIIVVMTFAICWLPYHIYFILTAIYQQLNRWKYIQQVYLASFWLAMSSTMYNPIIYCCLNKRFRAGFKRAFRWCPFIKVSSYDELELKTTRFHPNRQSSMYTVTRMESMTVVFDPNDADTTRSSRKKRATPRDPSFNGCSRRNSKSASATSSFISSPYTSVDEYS

NK2 = target: T2, NK2 (Homo sapiens, UniProt P21452); test: Signal transduction (ST), intracellular Ca++ FLIPR, NK2; format: cell-based; details: antagonist, read-out: NK2 pIC50 (converted)
T2 sequence (P21452 1-398): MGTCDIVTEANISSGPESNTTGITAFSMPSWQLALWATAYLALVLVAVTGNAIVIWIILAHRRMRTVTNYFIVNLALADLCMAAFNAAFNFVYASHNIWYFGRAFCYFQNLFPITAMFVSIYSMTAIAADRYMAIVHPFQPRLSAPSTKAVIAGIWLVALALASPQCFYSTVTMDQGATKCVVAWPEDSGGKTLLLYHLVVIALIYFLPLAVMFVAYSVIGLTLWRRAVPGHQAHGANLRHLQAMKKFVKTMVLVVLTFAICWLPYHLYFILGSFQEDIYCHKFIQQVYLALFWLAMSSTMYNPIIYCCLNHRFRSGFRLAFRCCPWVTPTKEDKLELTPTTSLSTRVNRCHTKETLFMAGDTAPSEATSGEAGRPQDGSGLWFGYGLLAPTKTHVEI

NK1, sequence (P25103 whole entry): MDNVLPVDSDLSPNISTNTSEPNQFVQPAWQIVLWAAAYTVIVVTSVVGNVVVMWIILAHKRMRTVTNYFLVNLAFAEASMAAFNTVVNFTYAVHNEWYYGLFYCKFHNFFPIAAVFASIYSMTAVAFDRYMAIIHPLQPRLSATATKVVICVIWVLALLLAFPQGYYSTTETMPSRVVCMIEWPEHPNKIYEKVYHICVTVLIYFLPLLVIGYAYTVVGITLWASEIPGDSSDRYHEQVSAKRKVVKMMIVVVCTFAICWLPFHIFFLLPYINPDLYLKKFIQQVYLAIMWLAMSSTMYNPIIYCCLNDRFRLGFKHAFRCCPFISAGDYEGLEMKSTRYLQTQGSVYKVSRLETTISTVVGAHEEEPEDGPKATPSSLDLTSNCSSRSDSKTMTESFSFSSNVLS

Row | SMILES | IC50 (NK1) | IC50 (NK3) | IC50 (NK2) | melting point
1 | O=C(C1CC1)N1CCC2(CC1)CCN([C@H]1CCN(C(=O)c3cc(C(F)(F)F)cc(C(F)(F)F)c3)[C@H](Cc3ccccc3)C1)C(=O)O2 [Compound 1.4] | 12.6 nM | 126 nM | 1000 nM | –
2 | O=C1OC2(CCN1Cc1ccoc1)CCN(C1CCN(C(=O)c3cc(C(F)(F)F)cc(C(F)(F)F)c3)C(Cc3ccccc3)C1)CC2 (stereo not drawn) [Compound 2.8] | 251 nM | 6310 nM | > 10000 nM | –
3 | CC(C)(C)CN1CCC2(CCN(C3CCN(C(=O)c4cc(C(F)(F)F)cc(C(F)(F)F)c4)C(Cc4ccccc4)C3)CC2)OC1=O (single isomer, unassigned) [Compound 2.2] | 63.1 nM | 3980 nM | 2000 nM | –
4 | O=C1OC2(CCN1Cc1ccc(O)cc1)CCN(C1CCN(C(=O)c3cc(C(F)(F)F)cc(C(F)(F)F)c3)C(Cc3ccccc3)C1)CC2 (stereo not drawn) [Compound 2.15] | 316 nM | 2000 nM | > 10000 nM | –
5 | O=C1OC2(CCN1Cc1cccnc1)CCN(C1CCN(C(=O)c3cc(C(F)(F)F)cc(C(F)(F)F)c3)C(Cc3ccccc3)C1)CC2 (single isomer, unassigned) [Compound 2.16] | 398 nM | 1580 nM | > 10000 nM | –
6 | CC(C)(C)CN1CCC2(CCN(C3CCN(C(=O)c4cc(C(F)(F)F)cc(C(F)(F)F)c4)C(Cc4ccccc4)C3)CC2)OC1=O (single isomer, unassigned) [Compound 2.1] | 251 nM | – | > 10000 nM | –
7 | O=C1OC2(CCN1Cc1cccnc1)CCN(C1CCN(C(=O)c3cc(C(F)(F)F)cc(C(F)(F)F)c3)C(Cc3ccccc3)C1)CC2 (single isomer, unassigned) [Compound 2.17] | 100 nM | 6310 nM | 2510 nM | –
8 | Cc1ccccc1CN1CCC2(CCN(C3CCN(C(=O)c4cc(C(F)(F)F)cc(C(F)(F)F)c4)C(Cc4ccccc4)C3)CC2)OC1=O (stereo not drawn) [Compound 2.12] | 251 nM | 5010 nM | 3980 nM | –
9 | CCC(CC)CN1CCC2(CCN(C3CCN(C(=O)c4cc(C(F)(F)F)cc(C(F)(F)F)c4)C(Cc4ccccc4)C3)CC2)OC1=O (single isomer, unassigned) [Compound 2.3] | 398 nM | 5010 nM | > 10000 nM | –
10 | O=C(c1ccoc1)N1CCC2(CC1)CCN(C1CCN(C(=O)c3cc(C(F)(F)F)cc(C(F)(F)F)c3)C(Cc3ccccc3)C1)C(=O)O2 (stereo not drawn) [Compound 1.7] | 15.8 nM | 126 nM | 7940 nM | –
11 | O=C(c1ccoc1)N1CCC2(CC1)CCN(C1CCN(C(=O)c3cc(C(F)(F)F)cc(C(F)(F)F)c3)C(Cc3ccccc3)C1)C(=O)O2 (stereo not drawn) [Compound 1.8] | 25.1 nM | – | – | 192 °C
12 | O=C1OC2(CCN1Cc1ccsc1)CCN(C1CCN(C(=O)c3cc(C(F)(F)F)cc(C(F)(F)F)c3)C(Cc3ccccc3)C1)CC2 (stereo not drawn) [Compound 2.6] | 200 nM | 2510 nM | > 10000 nM | –
13 | O=C(C1CCOC1)N1CCC2(CC1)CCN(C1CCN(C(=O)c3cc(C(F)(F)F)cc(C(F)(F)F)c3)C(Cc3ccccc3)C1)C(=O)O2 (stereo not drawn) [Compound 1.6] | 25.1 nM | – | – | 102 °C
14 | O=C(c1cnccn1)N1CCC2(CC1)CCN(C1CCN(C(=O)c3cc(C(F)(F)F)cc(C(F)(F)F)c3)C(Cc3ccccc3)C1)C(=O)O2 (stereo not drawn) [Compound 1.13] | 50.1 nM | 1580 nM | 7940 nM | –
15 | O=C1OC2(CCN1CC1CCCCC1)CCN(C1CCN(C(=O)c3cc(C(F)(F)F)cc(C(F)(F)F)c3)C(Cc3ccccc3)C1)CC2 (stereo not drawn) [Compound 2.5] | 200 nM | > 10000 nM | 5010 nM | –
16 | O=C(c1ccccc1)N1CCC2(CC1)CCN(C1CCN(C(=O)c3cc(C(F)(F)F)cc(C(F)(F)F)c3)C(Cc3ccccc3)C1)C(=O)O2 (stereo not drawn) [Compound 1.11] | 31.6 nM | 794 nM | > 10000 nM | –
17 | O=C1OC2(CCN1Cc1ccsc1)CCN(C1CCN(C(=O)c3cc(C(F)(F)F)cc(C(F)(F)F)c3)C(Cc3ccccc3)C1)CC2 (stereo not drawn) [Compound 2.7] | 158 nM | – | 3980 nM | –
18 | Cn1cccc1CN1CCC2(CCN(C3CCN(C(=O)c4cc(C(F)(F)F)cc(C(F)(F)F)c4)C(Cc4ccccc4)C3)CC2)OC1=O (single isomer, unassigned) [Compound 2.10] | 79.4 nM | 3980 nM | 2000 nM | –
19 | Cc1nnsc1C(=O)N1CCC2(CC1)CCN(C1CCN(C(=O)c3cc(C(F)(F)F)cc(C(F)(F)F)c3)C(Cc3ccccc3)C1)C(=O)O2 (stereo not drawn) [Compound 1.10] | 12.6 nM | 316 nM | 6310 nM | –
20 | CCC(CC)CN1CCC2(CCN(C3CCN(C(=O)c4cc(C(F)(F)F)cc(C(F)(F)F)c4)C(Cc4ccccc4)C3)CC2)OC1=O (single isomer, unassigned) [Compound 2.4] | 79.4 nM | 7940 nM | 5010 nM | –
21 | Cn1cccc1CN1CCC2(CCN(C3CCN(C(=O)c4cc(C(F)(F)F)cc(C(F)(F)F)c4)C(Cc4ccccc4)C3)CC2)OC1=O (single isomer, unassigned) [Compound 2.9] | 631 nM | 3160 nM | – | –
22 | CC(C)(C)C(=O)N1CCC2(CC1)CCN(C1CCN(C(=O)c3cc(C(F)(F)F)cc(C(F)(F)F)c3)C(Cc3ccccc3)C1)C(=O)O2 (stereo not drawn) [Compound 1.3] | 10 nM | 79.4 nM | 5010 nM | –
23 | O=C(c1ccccc1)N1CCC2(CC1)CCN(C1CCN(C(=O)c3cc(C(F)(F)F)cc(C(F)(F)F)c3)C(Cc3ccccc3)C1)C(=O)O2 (stereo not drawn) [Compound 1.12] | 50.1 nM | – | – | 110 °C
24 | Cc1ccccc1CN1CCC2(CCN(C3CCN(C(=O)c4cc(C(F)(F)F)cc(C(F)(F)F)c4)C(Cc4ccccc4)C3)CC2)OC1=O (stereo not drawn) [Compound 2.11] | 398 nM | 7940 nM | > 10000 nM | –
25 | O=C(C1CCOC1)N1CCC2(CC1)CCN([C@H]1CCN(C(=O)c3cc(C(F)(F)F)cc(C(F)(F)F)c3)[C@H](Cc3ccccc3)C1)C(=O)O2 (stereo partly drawn) [Compound 1.5] | 12.6 nM | 251 nM | 7940 nM | –

— patent US8138334B2, “Substituted oxa-diaza-spiro-[5.5]-undecanone derivatives and their use as neurokinin antagonists” (Janssen Pharmaceutica N.V., priority 2005, dated 2012)
